The values that follow are results of earlier work, collected in patent publication US9662309B2, “Anti-demodicosis agent” (BAYER INTELLECTUAL PROPERTY GMBH, priority 2004, dated 2017).

This data set relates to demodicosis. The following applies: spot-on treatment 3 times weekly.

For 22,23-dihydroavermectin B1 [ivermectin], the effectiveness against demodicosis entry is given as “insufficiently effective”.
